Results taken from ChEMBL document CHEMBL4190382, “Targeting lysine specific demethylase 4A (KDM4A) tandem TUDOR domain - A fragment based approach” (Bioorg Med Chem Lett, 2018).
Calls of active or inactive are those of the source. The calls are words filed in the database; no cut-off is given here.

Key:
[1] = target: T1, Lysine-specific demethylase 4B (Homo sapiens, UniProt O94953); test: Binding affinity to 6His-tagged and human KDM4B tandem TUDOR domain (916 to 1030 residues) expressed in Escherichia coli BL21(DE3)-T1R by ITC method
T1 sequence (O94953 whole entry): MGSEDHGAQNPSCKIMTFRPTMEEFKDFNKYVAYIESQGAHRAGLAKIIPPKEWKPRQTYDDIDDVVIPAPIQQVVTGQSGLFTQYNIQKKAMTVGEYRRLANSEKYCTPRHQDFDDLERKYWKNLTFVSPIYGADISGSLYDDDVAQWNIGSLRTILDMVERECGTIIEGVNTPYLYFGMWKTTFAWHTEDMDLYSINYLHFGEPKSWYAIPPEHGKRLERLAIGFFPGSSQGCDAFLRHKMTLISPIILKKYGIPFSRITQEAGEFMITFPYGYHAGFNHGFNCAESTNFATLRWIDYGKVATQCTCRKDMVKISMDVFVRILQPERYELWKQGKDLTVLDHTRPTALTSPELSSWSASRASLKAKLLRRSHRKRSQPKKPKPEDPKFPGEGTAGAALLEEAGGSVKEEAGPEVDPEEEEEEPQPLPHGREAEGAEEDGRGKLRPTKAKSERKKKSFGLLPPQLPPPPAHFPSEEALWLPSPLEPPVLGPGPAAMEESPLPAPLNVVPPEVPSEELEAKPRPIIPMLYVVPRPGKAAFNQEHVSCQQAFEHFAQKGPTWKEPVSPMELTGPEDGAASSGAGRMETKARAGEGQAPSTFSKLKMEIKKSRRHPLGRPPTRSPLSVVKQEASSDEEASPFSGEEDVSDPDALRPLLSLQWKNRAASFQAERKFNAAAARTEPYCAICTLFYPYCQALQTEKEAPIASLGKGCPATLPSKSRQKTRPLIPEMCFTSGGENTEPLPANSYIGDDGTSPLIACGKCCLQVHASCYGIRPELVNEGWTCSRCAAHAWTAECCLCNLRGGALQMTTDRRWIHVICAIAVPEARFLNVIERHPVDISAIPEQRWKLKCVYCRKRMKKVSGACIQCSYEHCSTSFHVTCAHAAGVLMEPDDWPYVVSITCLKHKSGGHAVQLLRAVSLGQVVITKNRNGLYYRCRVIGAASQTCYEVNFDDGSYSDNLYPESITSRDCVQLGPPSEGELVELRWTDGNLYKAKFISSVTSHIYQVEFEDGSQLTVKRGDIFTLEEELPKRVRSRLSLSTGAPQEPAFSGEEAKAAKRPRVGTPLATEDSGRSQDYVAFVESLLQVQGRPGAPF

[2] = test system: T2, Lysine-specific demethylase 4A (Homo sapiens), O75164 [F932A]; test: Binding affinity to thrombin cleavable N-terminal 6His tagged and 13C-IVLM labeled human KDM4A tandem TUDOR domain (897 to 1011 residues) F932A mutant expressed in Escherichia coli BL21(DE3)-T1R by ITC method
T2 sequence (whole entry): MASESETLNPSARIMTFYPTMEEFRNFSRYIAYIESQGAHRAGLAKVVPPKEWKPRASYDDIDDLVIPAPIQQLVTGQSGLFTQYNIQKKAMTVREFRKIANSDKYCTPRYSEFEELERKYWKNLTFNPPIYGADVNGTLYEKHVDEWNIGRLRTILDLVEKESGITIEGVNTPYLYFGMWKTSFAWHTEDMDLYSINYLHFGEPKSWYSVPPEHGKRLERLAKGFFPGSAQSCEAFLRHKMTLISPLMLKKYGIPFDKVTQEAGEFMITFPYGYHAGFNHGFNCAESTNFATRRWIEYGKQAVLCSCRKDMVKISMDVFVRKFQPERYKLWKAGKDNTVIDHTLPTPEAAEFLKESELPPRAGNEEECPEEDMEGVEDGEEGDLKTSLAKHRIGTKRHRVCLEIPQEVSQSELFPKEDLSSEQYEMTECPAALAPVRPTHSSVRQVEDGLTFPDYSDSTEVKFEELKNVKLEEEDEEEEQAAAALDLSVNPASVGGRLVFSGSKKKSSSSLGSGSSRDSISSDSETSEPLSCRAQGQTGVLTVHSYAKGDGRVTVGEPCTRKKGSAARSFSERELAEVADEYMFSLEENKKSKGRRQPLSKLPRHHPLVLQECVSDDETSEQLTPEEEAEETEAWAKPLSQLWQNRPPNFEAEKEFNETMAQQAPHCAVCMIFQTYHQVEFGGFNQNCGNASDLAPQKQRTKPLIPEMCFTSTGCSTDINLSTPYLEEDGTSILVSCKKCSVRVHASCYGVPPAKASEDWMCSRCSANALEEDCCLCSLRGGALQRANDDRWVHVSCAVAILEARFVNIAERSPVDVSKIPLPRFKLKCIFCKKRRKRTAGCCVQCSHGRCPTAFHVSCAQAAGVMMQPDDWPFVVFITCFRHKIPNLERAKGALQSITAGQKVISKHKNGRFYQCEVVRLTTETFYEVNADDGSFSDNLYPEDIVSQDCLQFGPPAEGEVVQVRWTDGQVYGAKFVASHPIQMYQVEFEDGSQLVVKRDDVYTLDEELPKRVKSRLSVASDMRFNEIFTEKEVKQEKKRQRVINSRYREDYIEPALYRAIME

[3] = target: T3, E3 ubiquitin-protein ligase UHRF1 (Homo sapiens, UniProt Q96T88); test: Binding affinity to 6His-tagged and human UHRF1 tandem TUDOR domain (126 to 285 residues) expressed in Escherichia coli BL21(DE3)-T1R by ITC method
T3 sequence (Q96T88 whole entry): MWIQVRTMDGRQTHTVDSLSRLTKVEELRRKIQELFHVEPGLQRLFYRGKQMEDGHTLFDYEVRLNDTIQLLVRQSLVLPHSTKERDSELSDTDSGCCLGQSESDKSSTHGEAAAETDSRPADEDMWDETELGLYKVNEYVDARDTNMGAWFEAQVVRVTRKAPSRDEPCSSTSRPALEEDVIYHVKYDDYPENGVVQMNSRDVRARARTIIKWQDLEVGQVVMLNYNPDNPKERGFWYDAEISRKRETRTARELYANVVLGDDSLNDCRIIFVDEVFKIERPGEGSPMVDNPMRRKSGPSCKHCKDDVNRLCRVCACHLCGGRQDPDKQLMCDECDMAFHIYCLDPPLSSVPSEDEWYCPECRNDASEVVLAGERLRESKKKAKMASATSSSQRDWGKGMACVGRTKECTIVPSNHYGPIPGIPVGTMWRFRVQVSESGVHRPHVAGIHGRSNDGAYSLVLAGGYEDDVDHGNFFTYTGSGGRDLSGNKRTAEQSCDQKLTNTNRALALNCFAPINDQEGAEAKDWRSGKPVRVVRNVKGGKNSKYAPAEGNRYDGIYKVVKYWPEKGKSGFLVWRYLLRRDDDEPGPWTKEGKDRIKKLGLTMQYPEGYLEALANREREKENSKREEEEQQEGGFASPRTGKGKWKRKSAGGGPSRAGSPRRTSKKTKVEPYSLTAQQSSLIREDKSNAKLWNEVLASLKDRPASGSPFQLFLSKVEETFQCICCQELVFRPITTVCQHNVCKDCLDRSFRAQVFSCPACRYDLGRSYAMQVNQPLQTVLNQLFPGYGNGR

In the case of CN(C)C[C@H]1C2CCC(c3ccccc3)(C2)[C@H]1O (stereo partly drawn), the Kd [1] is reported as 127 µM, the Activity [2] is reported as “inactive” and the Kd [3] is reported as “Not Active”.
